# Results reported in US8247352B2, “Method of inhibiting ethylene production in plants” (The Regents of the University of California, priority 2005, dated 2012).
# “And” between values parts separate entries of the source, which are not always exact repeats. Identical values can stand only once.
# Columns and labels:
# [1] = target: T1, ACC Oxidase (ACCO, ACO1) (Solanum lycopersicum, UniProt P05116); assay: Initial velocity assays (rate of oxygen consumption) with ACC or substrate analogs; type: biochemical, Lycopersicon esculentum; settings: for Km increased by factor compared with ACC / Rate of O2 consumption by ACCO compared with ACC (in words) / Km compared to ACC (in words): from Table 1; for Km / Vmax: O2 consumption, 25° C., pH 7.2, [Ascorbate] = 30 mM, [O2] = 258 μM, [CO2/bicarbonate] = 20 mM
# T1 construct: made in house; host or cells: Escherichia coli BL21 (DE3)pLysS
# T1 sequence (P05116 whole entry): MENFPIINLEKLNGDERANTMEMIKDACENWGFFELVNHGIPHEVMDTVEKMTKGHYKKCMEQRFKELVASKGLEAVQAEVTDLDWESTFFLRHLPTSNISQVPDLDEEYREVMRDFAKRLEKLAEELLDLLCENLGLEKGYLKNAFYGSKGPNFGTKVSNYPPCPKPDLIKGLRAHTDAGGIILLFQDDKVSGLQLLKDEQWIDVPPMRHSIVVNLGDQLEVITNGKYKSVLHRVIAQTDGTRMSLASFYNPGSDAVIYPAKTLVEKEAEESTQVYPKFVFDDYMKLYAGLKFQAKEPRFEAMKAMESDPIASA
# Method: ACCO from Lycopersicon esculentum (ACO1) was produced in Escherichia coli strain BL21 (DE3)pLysS and purified by a two-column purification procedure as previously described (Thrower, J. S. et al., 2001).
# Initial velocities were measured by the rate of oxygen consumption at 25° C., pH 7.2, using a YSI model 5300 biological oxygen monitor as previously described (Thrower 2001) with minor modifications. Standard reaction mixture (1 ml) contained 100 mM MOPS, pH 7.2, 20 mM NaHCO3, 100 mM NaCl, 20 mM sodium ascorbate, 0.1 mg/ml BSA, and ACC or substrate analog at various concentrations. Oxygen concentrations were kept at atmospheric concentration and determined using the oxygen monitor that was calibrated with air saturated water (258 μM oxygen at 25° C.). Reactions were initiated with 2 μL ACCO reconstituted with equimolar Fe(NH4)2(SO4)2. Data from initial velocity experiments with varying substrate concentrations were fitted to the Michaelis-Menton equation using the program Kalideograph.
# Either cyclic substrate analogs (including inhibitor Me-ACC, ACC-NH2, or ACC-OMe) or acyclic substrate analogs (AIB, D-Ala, or Gly) were used. […] Ascorbate and oxygen concentrations were kept constant at 30 mM and ˜258 μM, respectively.
# [2] = target: T2, ACC Oxidase (Solanum lycopersicum, UniProt P05116); assay: Stoichiometry of O2 consumed to product formed (CO2 or ethylene), extent of uncoupling; type: biochemical, Lycopersicon esculentum; settings: for Ratio O2 consumed to product formed, O2:CO2 / Ratio O2 consumed to product formed, O2:ethylene: saturating substrate, 30 mM ascorbate, ambient O2; for Ratio O2 consumed to product formed, O2:CO2: [14C]-CO2 trapping; for Ratio O2 consumed to product formed, O2:ethylene: ethylene by GC-FID
# T2 construct: made in house; host or cells: Escherichia coli BL21 (DE3)pLysS
# T2 sequence (P05116 whole entry): as above
# Method: Oxygen consumption was measured using a YSI model 5300 biological oxygen monitor as described above. Reactions contained D-[1-^14C]-Ala, [carboxyl-^14C]-ACC, α-[1-^14C]-AIB, or [1-^14C]-Gly in trace amounts. […] Reactions (1 mL) were initiated with a pre-incubated mixture of ACCO:Fe(II) in a 2:1 ratio. This was done to minimize free Fe(II) in solution. Final concentrations were typically 10 μM ACCO and 5 μM Fe(II). Reactions were quenched by addition of 3 μL of 0.1 M 3-[2-Pyridyl]-5,6-diphenyl-1,2,4-triazine-4,4′-disulfonic acid (FERROZINE®) and the O2 consumption rate was allowed to stabilize. The reaction (0.8 mL) was removed with a gas-tight syringe and injected into a small vial containing 0.1 mL 10% HCl that was inside a larger vial containing the CO2 trap (see above). The acidified reaction mixture and the CO2 trap were stirred for 2 h, and radioactivity from [^14C]—CO2 was determined as described above. Controls measuring the efficiency of the CO2 trap were done by injecting a known amount of [^14C]—NaHCO3 into the vial containing acid, as above, and measuring the amount of [^14C]—CO2 recovered. Efficiency of trapping was routinely ˜98%.
# O2 consumption was measured using an Ocean Optics FOXY fiber optic oxygen sensor, with the fiber optic probe inserted through a syringe into an airtight septum, thus preventing ethylene escape. […] ACCO:Fe(II) (final concentrations 10 μM ACCO and 5 μM Fe(II)) was injected by syringe into a ½ dram vial covered with a septum with no headspace. The reaction was quenched as described above. A 10 mL syringe filled with air was used to transfer the reaction mixture to a 10 mL test tube covered with a septum using a cannula. The test tube was stirred vigorously for at least 4 hours before ethylene analysis. Ethylene was measured by injecting 2 mL of the headspace onto a GC equipped with a RT-Alumina GC column (final sample size was 250 μL). Ethylene was separated using ultrapure helium (grade 5) as the carrier gas at 40° C. detected by flame ionization (FID). The data were collected and the peak area was determined. Calibration for ethylene was done with Scotty IV mix 3 hydrocarbon standard (Scotty Specialty Gases). The ppm of ethylene was converted to nanomoles of ethylene per unit volume using the ideal gas law. Dilution of ethylene during sampling was taken into account in the calculations.
# The extent of uncoupling for ACCO with both cyclic and acyclic substrate analogs was determined by comparing the amount of O2 consumed and product, either ethylene or CO2, formed. All reactions were carried out at saturating substrate and ascorbate concentrations to minimize potential O2 reaction in the absence of substrate. […] O2 measurements were quenched during or just as the linear phase of the reaction began to fall off due to either loss of Fe(II) from the enzyme or possible enzyme inactivation. The results distinguish between amounts of uncoupling.
# For cyclic substrate analogs and ACC, the stoichiometry was determined by comparing O2 consumption with ethylene formation by GC-FID. […] The stoichiometry of O2 consumed to ethylene produced for ACC was 1.44 and to CO2 produced was 1.18, which is identical to that reported by Dong, et. al (Dong et al., 1992).
# [3] = target: T3, ACCO:Fe(II) (Solanum lycopersicum, UniProt P05116); assay: Ethylene trapping assay: substrate turnover by ACCO:Fe(II), ethylene trapped as dibromoethane, GC-MS; type: biochemical, Lycopersicon esculentum; settings: for Amount of ethylene formed during the reaction time relative to reaction with ACC: 1 hr incubation with ACCO:Fe(II); for Ethylene produced relative to predicted ethylene during the reaction time course: prediction from kcat
# T3 construct: made in house; host or cells: Escherichia coli BL21 (DE3)pLysS
# T3 sequence (P05116 whole entry): as above
# Method: For detection of CO2, trace radiolabeled compound was used as appropriate. A small vial containing the reaction mixture minus enzyme was placed along side of another small vial containing the ethylene or CO2 trap. Both vials were placed in a large vial, which was capped with a septum. ACCO:Fe(II) was introduced into the reaction vial with a syringe and both the reaction vial and trap vial were stirred for 1 h. For [^14C]—CO2 trapping, a 1 mL solution of freshly prepared 10 M NaOH was used as the trapping agent. At the end of the reaction, the trap was removed and added to 15 mL scintillation fluid (Hionic-Fluor, Perkin Elmer) and radioactivity determined by scintillation counting. For ethylene, a […] solution of Br2 in CCl4 was used as the trap. A small amount of 2,5-dibromohexane was added to the trap as an internal standard. At the completion of the reaction, a small excess of 2,3-dimethyl-2-butene was added to the trap to quench unreacted Br2, and the trap was analyzed by GC-MS. Dibromoethane purchased from Aldrich was used as a standard.
# The ability of ACCO to turnover ACC or the cyclic substrate analogs (MeACC, ACC-NH2, or ACC-OMe) was determined by the formation of ethylene. Each substrate analog or ACC was incubated for 1 hr with ACCO:Fe(II) in a closed reaction vial containing an ethylene trap that would convert ethylene to dibromoethane. At the end of the reaction time, the ethylene trap was quenched and analyzed for dibromoethane by GC-MS. Reactions with BSA/Fe(II) were used as a control for non-enzymatic ethylene formation. The formation of ethylene was detected in the reaction vials of ACC and all the cyclic analogs in the presence of ACCO:Fe(II). No ethylene was detected in any of the BSA/Fe(II) reactions. The amount of ethylene formed during the reaction time from the cyclic analogs was lower than that from the reaction with ACC (MeACC=14%, ACCNH2=13%, ACC-OMe=79%). If the rates of O2 consumption for the reactions with the different substrates are considered, the kcat for ACC-OMe is approximately 75% of that for ACC, which would be consistent with the amount of ethylene produced during the time course of the reaction. […] Although the purity of both MeACC and ACCNH2 by elemental analysis was determined >95%, it is possible that a small amount of contaminating ACC could be responsible for the ethylene formed in these reactions. To determine whether ethylene was being formed from the substrate analog and not from contaminating ACC, reactions with each analog were done in the presence of increasing concentration of ACCO:Fe(II). In the case of a small amount of contamination where the ACC would be quickly depleted during the reaction, the result would be a non-linear dependence of ethylene production with increasing ACCO concentration.
# [4] = target: T4, ACCO (Solanum lycopersicum, UniProt P05116); assay: Labeling of ACCO by radiolabeled N-Me-ACC (centrifugal filtration, scintillation counting); type: binding, Lycopersicon esculentum; settings: approximately equal concentrations, standard reaction conditions, quenched with Ferrozine
# T4 construct: made in house; host or cells: Escherichia coli BL21 (DE3)pLysS
# T4 sequence (P05116 whole entry): as above
# Method: Radiolabeled N-Me-ACC was incubated with ACCO (approximately equal concentrations) in standard reaction conditions. The reaction was quenched using Ferrozine. The solution was placed in a Millipore 10K NMWL Ultrafree®-MC Centrifugal Filter Unit and centrifuged for 15 min. at 14K rpm. The remaining protein (˜20 μL) was washed with 3×1 mL of either water, reaction buffer, or 0.1% TFA by repeated centrifugation. The protein was collected and radioactivity determined by scintillation counting in 12 mL EcoLite^+ scintillation fluid.
Compound,Km increased by factor compared with ACC [1] [fold],Rate of O2 consumption by ACCO compared with ACC (in words) [1],Products detected [2],"Ratio O2 consumed to product formed, O2:CO2 [2]","Ratio O2 consumed to product formed, O2:ethylene [2]",Km [1] [µM],Vmax [1] [min⁻¹],kcat as percent of that for ACC ([1]; from rates of O2 consumption),Amount of ethylene formed during the reaction time relative to reaction with ACC [3] [%],Km compared to ACC (in words) [1],kcat slower than the kcat for ACC ([1]; from rates of O2 consumption) [%],Ethylene produced relative to predicted ethylene during the reaction time course [3],Labeling of ACCO by radiolabeled compound [4]
"CC(C)(N)C(=O)O [AIB, α-aminoisobutyric acid]",9.3,comparable,"Acetone, CO2",1.7 and 1.68 ± 0.12,,,,,,,,,
"NC1(C(=O)O)CC1 [ACC, 1-aminocyclopropane-1-carboxylic acid, reference compound]",,,"Ethylene, CO2",1.18 and 1.2 and 1.18 ± 0.17,1.44 and 1.44 ± 0.22,,,,,,,,
"C[C@@H](N)C(=O)O [D-Alanine, D-alanine]",44.7,comparable,"Acetaldehyde, CO2",3.46 ± 0.51,,,,,,,,,
COC(=O)C1(N)CC1 [ACC-OMe],~28,,Ethylene,,1.81 ± 0.72,2760 ± 550,27.3 ± 1.7,approximately 75%,79,,,,
NC(=O)C1(N)CC1 [ACC-NH2],,,Ethylene,,4.40 ± 1.56,,,,13,not significantly altered,~30,about half the predicted ethylene,
CNC1(C(=O)O)CC1 [N-Me-ACC],,,Ethylene,,3.17 ± 0.86,107 ± 21,12.2 ± 0.5,,14,not significantly altered,~30,about half the predicted ethylene,irreversibly labels ACCO in a short period of time
"NCC(=O)O [Glycine, glycine]",,,CO2,,,,,,,,,,
